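Briefly, cells in 96-well plates were exposed to five compound concentrations for 48 h, and endpoints were estimated by linear interpolation. GI50 is the concentration that inhibits growth by half.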 Activity calls are given as the source filed them. No stated cut-off is given here; in the data, active = GI50 up to about 1.1 µM and inactive = higher.
Experiments:
Test in all cases: NCI-60 cell line screen, 48 h
DU-145 = tested on: DU-145
K562 = tested on: K562
OVCAR-4 = tested on: OVCAR-4
NCI-H226 = tested on: NCI-H226
OVCAR-5 = tested on: OVCAR-5
TK-10 = tested on: TK-10
HOP-62 = tested on: HOP-62
SK-MEL-2 = tested on: SK-MEL-2
CCRF-CEM = tested on: CCRF-CEM
SF-295 = tested on: SF-295
COLO 205 = tested on: COLO 205
IGROV-1 = tested on: IGROV-1
UACC-257 = tested on: UACC-257
OVCAR-8 = tested on: OVCAR-8
A498 = tested on: A498
Malme-3M = tested on: Malme-3M
U-251 = tested on: U-251
KM12 = tested on: KM12
LOX IMVI = tested on: LOX IMVI

SMILES	GI50 (DU-145)	GI50 (K562)	GI50 (OVCAR-4)	GI50 (NCI-H226)	GI50 (OVCAR-5)	GI50 (TK-10)	GI50 (HOP-62)	GI50 (SK-MEL-2)	GI50 (CCRF-CEM)	GI50 (SF-295)	GI50 (COLO 205)	GI50 (IGROV-1)	GI50 (UACC-257)	GI50 (OVCAR-8)	GI50 (A498)	GI50 (Malme-3M)	GI50 (U-251)	GI50 (KM12)	GI50 (LOX IMVI)
O=C(O)/C=C\C(=O)Nn1c(Cc2ccc(Cl)cc2)n[nH]c1=O	> 100 µM (inactive)	> 100 µM (inactive)	> 100 µM (inactive)	> 100 µM (inactive)	> 100 µM (inactive)	> 100 µM (inactive)	> 100 µM (inactive)	> 100 µM (inactive)	> 100 µM (inactive)	> 100 µM (inactive)	> 100 µM (inactive)	> 100 µM (inactive)	> 100 µM (inactive)	> 100 µM (inactive)	> 100 µM (inactive)	> 100 µM (inactive)	> 100 µM (inactive)		
Cn1ccnc1S/C(=C\C=C(C#N)C#N)c1ccc(Cl)cc1	6.04 µM (inactive)	0.252 µM (active)	4.09 µM (inactive)		2.31 µM (inactive)	0.492 µM (active)	4.17 µM (inactive)		0.126 µM (active)	2.87 µM (inactive)	2.99 µM (inactive)	2.69 µM (inactive)	2.1 µM (inactive)	1.12 µM (active)	1.27 µM (inactive)	1.04 µM (active)	2.82 µM (inactive)	2.06 µM (inactive)	
CCCC(=O)N/S(=N/S(=O)(=O)c1ccc(Cl)cc1)C(Cl)(Cl)Cl (stereo not given)	> 100 µM (inactive)	> 100 µM (inactive)		> 100 µM (inactive)	> 100 µM (inactive)	> 100 µM (inactive)	> 100 µM (inactive)	16.5 µM (inactive)	> 100 µM (inactive)	> 100 µM (inactive)		> 100 µM (inactive)		> 100 µM (inactive)	> 100 µM (inactive)	> 100 µM (inactive)	47.9 µM (inactive)	> 100 µM (inactive)	
O=[N+]([O-])c1ccc(/C=N/n2c(S)nnc2CCc2nnc(S)n2/N=C/c2ccc([N+](=O)[O-])o2)o1	16.2 µM (inactive)	28.6 µM (inactive)	19.3 µM (inactive)	> 100 µM (inactive)	> 100 µM (inactive)	84.1 µM (inactive)	24 µM (inactive)	18.5 µM (inactive)	20 µM (inactive)	> 100 µM (inactive)		44.3 µM (inactive)	22.4 µM (inactive)	31.9 µM (inactive)	> 100 µM (inactive)		20 µM (inactive)	22.8 µM (inactive)	20.4 µM (inactive)
CC1(C)CC(=O)C(=CNc2nc(-c3cccc([N+](=O)[O-])c3)cs2)C(=O)C1	29.4 µM (inactive)	16.6 µM (inactive)	27.5 µM (inactive)	15.3 µM (inactive)	46.3 µM (inactive)	35.8 µM (inactive)	19.6 µM (inactive)	55.8 µM (inactive)	2 µM (inactive)	37.2 µM (inactive)	14.8 µM (inactive)	17.6 µM (inactive)	22.5 µM (inactive)	23.7 µM (inactive)	13.8 µM (inactive)		19.6 µM (inactive)	16.6 µM (inactive)	13.7 µM (inactive)
Nc1c(Br)cc(-c2nc3ccccc3s2)cc1Br	> 100 µM (inactive)	> 100 µM (inactive)		> 100 µM (inactive)	> 100 µM (inactive)	6.85 µM (inactive)	> 100 µM (inactive)	> 100 µM (inactive)	> 100 µM (inactive)	> 100 µM (inactive)	> 100 µM (inactive)	5.12 µM (inactive)	> 100 µM (inactive)	> 100 µM (inactive)	> 100 µM (inactive)	> 100 µM (inactive)	> 100 µM (inactive)	75.7 µM (inactive)	
C[C@H](CCC(=O)O[C@@H]1CC[C@@]2(C)C(CC[C@H]3[C@@H]4CC[C@H]([C@H](C)CCc5nc6ccccc6[nH]5)[C@@]4(C)CC[C@@H]32)C1)[C@H]1CC[C@H]2[C@@H]3CCC4C[C@H](O)CC[C@]4(C)[C@H]3CC[C@]12C (stereo not given in full)	> 100 µM (inactive)	> 100 µM (inactive)	0.501 µM (active)	> 100 µM (inactive)	> 100 µM (inactive)	> 100 µM (inactive)	25.7 µM (inactive)	> 100 µM (inactive)	> 100 µM (inactive)	16.7 µM (inactive)	> 100 µM (inactive)	1.33 µM (inactive)	> 100 µM (inactive)	20.2 µM (inactive)	> 87.5 µM (inactive)		36.7 µM (inactive)	> 100 µM (inactive)	3.95 µM (inactive)
COc1ccc(-n2cnc3c(NC(C)(C)C(=O)O)ncnc32)cc1	> 100 µM (inactive)	> 100 µM (inactive)	> 100 µM (inactive)	> 100 µM (inactive)	> 100 µM (inactive)	> 100 µM (inactive)	> 100 µM (inactive)	> 100 µM (inactive)	> 100 µM (inactive)	> 100 µM (inactive)	> 100 µM (inactive)	> 100 µM (inactive)	> 100 µM (inactive)	> 100 µM (inactive)	> 100 µM (inactive)		> 100 µM (inactive)	> 100 µM (inactive)	> 100 µM (inactive)
NCCNCC1CCNCC1	> 100 µM (inactive)	> 100 µM (inactive)	> 100 µM (inactive)	> 100 µM (inactive)	> 100 µM (inactive)	> 100 µM (inactive)	> 100 µM (inactive)	> 100 µM (inactive)		> 100 µM (inactive)	> 100 µM (inactive)	> 100 µM (inactive)	> 100 µM (inactive)	> 100 µM (inactive)	> 100 µM (inactive)	> 100 µM (inactive)	> 100 µM (inactive)	> 100 µM (inactive)	> 100 µM (inactive)
CCOC(=O)/C=C(/C(=O)OCC)n1c(=O)c(C)cn(C2CC(N=[N+]=[N-])C(CO)O2)c1=O (stereo not given)	43.5 µM (inactive)	1.86 µM (inactive)	32.6 µM (inactive)	45.4 µM (inactive)	> 100 µM (inactive)	37.2 µM (inactive)	59.7 µM (inactive)	19.5 µM (inactive)		79.6 µM (inactive)	14.5 µM (inactive)	37.3 µM (inactive)	22.1 µM (inactive)	28.9 µM (inactive)	44.1 µM (inactive)	54.3 µM (inactive)	18 µM (inactive)	50.1 µM (inactive)	27.5 µM (inactive)
COC(=O)C(Cc1ccc(Oc2cc(CC(NC(=O)c3ccccc3)C(=O)OC)ccc2OC)cc1)NC(=O)c1ccccc1 (stereo not given)	16.9 µM (inactive)	2.01 µM (inactive)	26.4 µM (inactive)	27.5 µM (inactive)	> 100 µM (inactive)	7.53 µM (inactive)	38.3 µM (inactive)	14.5 µM (inactive)		> 77.6 µM (inactive)	27 µM (inactive)	6.3 µM (inactive)	7.35 µM (inactive)	10.7 µM (inactive)	46.3 µM (inactive)	15.2 µM (inactive)	32.8 µM (inactive)	37.5 µM (inactive)	8.26 µM (inactive)

From ChEMBL document CHEMBL1201862, “PubChem BioAssay data set” (2004)
